Columns and labels:
Format in all cases: in vivo
[1] = tested on: soybean plants expressing Pseudomonas fluorescens G336W mutant, FMP 27 and FMP 37; assay: Tolerance to HPPD inhibitors of soybean plants expressing tolerant HPPD enzymes; conditions: T1 soybean plants; one week after application
From the text: Genes coding for the selected HPPD were obtained from a member of the group of organisms consisting of Blepharisma japonicum and Kordia algicida and cloned into an appropriate binary vector allowing the integration of DNA into the soybean genome, under the control of the CaMV35S promoter. For the respective cloning procedures, see WO2011076882 (PCT/EP2010/070567), Example 9; for Blepharisma japonicum (FMP37) and WO2011076889 (PCT/EP2010/070575), Example 9 for Kordia algicida (FMP27).
Between the sequence corresponding to the promoter and the sequence coding for the HPPD a DNA sequence coding for a transit peptide to the chloroplast was inserted, in order to add at the N-terminal extremity of the protein a target signal to allow the localization of the HPPD protein into the plant chloroplast. By using the vectors “pFCO112” (Blepharisma japonicum, WO2011076882), pFCO116 (Korida algicida, WO2011076889), and pFCO117” (see Example B2, above), soybean transformation was achieved as described in Example 10 of WO2011076882 (PCT/EP2010/070567) for Blepharisma japonicum (FMP37) and WO2011076889 (PCT/EP2010/070575) for Kordia algicida (FMP27). Seeds from TO events showing tolerance to tembotrione were harvested.
T1 Soybean seeds were transferred to single pots and grown under standard cultivation conditions, see WO2011076882.
Two weeks later, plants will be sprayed with several N-(tetrazol-4-yl)- or N-(triazol-3-yl)arylcarboxamides as defined above.

[2] = tested on: transgenic tobacco plants expressing HPPD from Blepharisma japonicum (FMP37); assay: Symptoms due to herbicide application on transgenic tobacco plants (damage classes 0-3); conditions: 25 g Al/ha, one week after application
From the text: (§1) Genes coding for the selected HPPD were obtained from a member of the group of organisms consisting of Avena sativa, Pseudomonas fluorescens mutant G336W, Blepharisma japonicum and Kordia algicida and cloned into the binary vector pBin19 allowing the integration of DNA into the tobacco genome, under the control of the CaMV35S promoter. For the cloning procedures, see A2 above for Avena sativa, see B2 above for Pseudomonas fluorescens, mutant G336W, see PCT/EP2010/070567 (published as WO 2011/076882, Example 5; for Blepharisma japonicum (FMP37) and see PCT/EP2010/070575, Example 5 for Kordia algicida (FMP27). Between the sequence corresponding to the promoter and the sequence coding for the HPPD a DNA sequence coding for a transit peptide to the chloroplast was inserted, in order to add at the N-terminal extremity of the protein a target signal to allow the localization of the HPPD protein into the plant chloroplast.
(§2) Seeds harvested from TO transformants will be put on standard soil for germination. Three weeks later plantlets (T1) will be transferred to single pots and grown under standard cultivation conditions (PCT/EP2010/070575, published as WO 2011/076889). Two weeks later, plants were sprayed with several N-(tetrazol-4-yl)- or N-(triazol-3-yl)arylcarboxamides as defined above.
(§3) Tables F1 to F5: Evaluation of the Symptoms Observed Due to the Application of the Herbicides on Transgenic Tobacco Plants, Expressing the Mutant Pseudomonas fluorescens HPPD G336W, the Avena HPPD (AvHPPD), the HPPD from Kordia algicida FMP27 or the HPPD from Blepharisma japonicum (FMP37), Compared to Non-Tranformed Tobacco Plants (“Wt”).
(§4) The herbicides (with “g Al/ha” meaning “g active ingredient/ha”) were applied on 8 to 10 plants originated from 1 to 3 independent transgenic events per transgene.
(§5) The symptoms were evaluated and classified as following: • 3=Very strong damage • 2=Strong damage • 1=Light and transient damage • 0=No damage

[3] = tested on: transgenic tobacco plants expressing mutant Pseudomonas fluorescens HPPD G336W (PfHPPD-G336W); assay: as above; conditions: PfHPPD-G336W line 646; 25 g Al/ha; one week after application
From the text: as §1, §2, §3, §4, §5

[4] = tested on: transgenic tobacco plants expressing HPPD from Kordia algicida FMP27; assay: as above; conditions: 25 g Al/ha, one week after application
From the text: as §1, §2, §3, §4, §5

[5] = tested on: transgenic tobacco plants expressing Avena HPPD (AvHPPD); assay: as above; conditions: 25 g Al/ha, one week after application
From the text: as §1, §2, §3, §4, §5

[6] = tested on: cotton plants expressing FMP 27 and FMP 37; assay: Tolerance to HPPD inhibitors of cotton plants expressing tolerant HPPD enzymes; conditions: T1 cotton plants; one week after application
From the text: Genes coding for the selected HPPD were obtained from a member of the group of organisms consisting of Blepharisma japonicum and Kordia algicida and cloned into an appropriate binary vector allowing the integration of DNA into the cotton genome, under the control of the CaMV35S promoter. For the respective cloning procedures, see WO2011076882 (PCT/EP2010/070567), Example 11; for Blepharisma japonicum (FMP37) and WO2011076889 (PCT/EP2010/070575), Example 11 for Kordia algicida (FMP27).
Between the sequence corresponding to the promoter and the sequence coding for the HPPD a DNA sequence coding for a transit peptide to the chloroplast was inserted, in order to add at the N-terminal extremity of the protein a target signal to allow the localization of the HPPD protein into the plant chloroplast. Cotton transformation was achieved as described in Example 12 of WO2011076882 (PCT/EP2010/070567) for Blepharisma japonicum (FMP37) and WO2011076889 (PCT/EP2010/070575) for Kordia algicida (FMP27). Seeds from T0 events showing tolerance to tembotrione were harvested.
T1 Cotton seeds were transferred to single pots and grown under standard cultivation conditions, see WO2011076882 (PCT/EP2010/070567) for Blepharisma japonicum (FMP37) and WO2011076889 (PCT/EP2010/070575) for Kordia algicida (FMP27).
At least 4 weeks later, plants will be sprayed with several N-(tetrazol-4-yl)- or N-(triazol-3-yl)arylcarboxamides as defined above.

[7] = tested on: transgenic tobacco plants expressing tolerant HPPD enzymes; assay: Tolerance of tobacco plants expressing tolerant HPPD enzymes (all transgenes)
From the text: as §1, §2, §3, §4, §5

[8] = tested on: non-transformed tobacco plants (Wt); assay: Symptoms due to herbicide application on tobacco plants (damage classes 0-3); conditions: 25 g Al/ha, one week after application
From the text: as §2, §3, §4, §5

SMILES: CCn1nnnc1NC(=O)c1ccc(C(F)(F)F)c(S(C)(=O)=O)c1C [Compound 5-148]
- tolerance of transgenic plants compared to the wild-type soybean plants [1]: superior tolerance
- number of plants with Damage 0 (No damage) ([2]; FMP37 line 749): 2
- number of plants with Damage 1 (Light and transient damage) ([2]; FMP37 line 749): 3
- number of plants with Damage 2 (Strong damage) ([2]; FMP37 line 749): 2
- number of plants with Damage 3 (Very strong damage) ([2]; FMP37 line 749): 3
- number of plants with Damage 0 (No damage) ([2]; FMP37 line 754): 2
- number of plants with Damage 1 (Light and transient damage) ([2]; FMP37 line 754): 1
- number of plants with Damage 2 (Strong damage) ([2]; FMP37 line 754): 5
- number of plants with Damage 3 (Very strong damage) ([2]; FMP37 line 754): 2
- number of plants with Damage 0 (No damage) ([2]; FMP37 line 795): 1
- number of plants with Damage 1 (Light and transient damage) ([2]; FMP37 line 795): 0
- number of plants with Damage 2 (Strong damage) ([2]; FMP37 line 795): 6
- number of plants with Damage 3 (Very strong damage) ([2]; FMP37 line 795): 3
- number of plants with Damage 0 (No damage) [3]: 0
- number of plants with Damage 1 (Light and transient damage) [3]: 3
- number of plants with Damage 2 (Strong damage) [3]: 2
- number of plants with Damage 3 (Very strong damage) [3]: 4
- number of plants with Damage 0 (No damage) ([4]; FMP27 line 733): 3
- number of plants with Damage 1 (Light and transient damage) ([4]; FMP27 line 733): 1
- number of plants with Damage 2 (Strong damage) ([4]; FMP27 line 733): 4
- number of plants with Damage 3 (Very strong damage) ([4]; FMP27 line 733): 2
- number of plants with Damage 0 (No damage) ([4]; FMP27 line 734): 4
- number of plants with Damage 1 (Light and transient damage) ([4]; FMP27 line 734): 2
- number of plants with Damage 2 (Strong damage) ([4]; FMP27 line 734): 0
- number of plants with Damage 3 (Very strong damage) ([4]; FMP27 line 734): 4
- number of plants with Damage 0 (No damage) ([4]; FMP27 line 735): 0
- number of plants with Damage 1 (Light and transient damage) ([4]; FMP27 line 735): 4
- number of plants with Damage 2 (Strong damage) ([4]; FMP27 line 735): 4
- number of plants with Damage 3 (Very strong damage) ([4]; FMP27 line 735): 2
- number of plants with Damage 0 (No damage) ([5]; AvHPPD line 656): 2
- number of plants with Damage 1 (Light and transient damage) ([5]; AvHPPD line 656): 1
- number of plants with Damage 2 (Strong damage) ([5]; AvHPPD line 656): 3
- number of plants with Damage 3 (Very strong damage) ([5]; AvHPPD line 656): 4
- number of plants with Damage 0 (No damage) ([5]; AvHPPD line 659): 3
- number of plants with Damage 1 (Light and transient damage) ([5]; AvHPPD line 659): 1
- number of plants with Damage 2 (Strong damage) ([5]; AvHPPD line 659): 0
- number of plants with Damage 3 (Very strong damage) ([5]; AvHPPD line 659): 6
- number of plants with Damage 0 (No damage) ([5]; AvHPPD line 699): 1
- number of plants with Damage 1 (Light and transient damage) ([5]; AvHPPD line 699): 1
- number of plants with Damage 2 (Strong damage) ([5]; AvHPPD line 699): 1
- number of plants with Damage 3 (Very strong damage) ([5]; AvHPPD line 699): 7
- tolerance of transgenic plants compared to the wild-type cotton plants [6]: superior tolerance
- tolerance of the transgenic tobacco plants (symptoms due to application of the herbicide) ([7]; T1 plants sprayed, evaluated one week after application): good tolerance
- sensitivity of transgenic tobacco plants compared to wild type (wt) plants ([7]; all tested independent lines, agronomically relevant dose): less sensitive
- number of plants with Damage 0 (No damage) [8]: 0
- number of plants with Damage 1 (Light and transient damage) [8]: 0
- number of plants with Damage 2 (Strong damage) [8]: 0
- number of plants with Damage 3 (Very strong damage) [8]: 10

Source: patent publication US9078446B2, “Use of N-(tetrazol-4-yl)- or N-(triazol-3-yl)arylcarboxamides or their salts for controlling unwanted plants in areas of transgenic crop plants being tolerant to HPPD inhibitor herbicides” (BAYER INTELLECTUAL PROPERTY GMBH, priority 2011, dated 2015)
